Results from ChEMBL document CHEMBL4145553, “Design, synthesis, and biological evaluation of novel amide and hydrazide based thioether analogs targeting Histone deacteylase (HDAC) enzymes” (Eur J Med Chem, 2018).

How the values were obtained:
HL-60 = test: Antiproliferative activity against human HL60 cells after 24 hrs by MTT assay; format: functional
MDA-MB-435 = test: Antiproliferative activity against human MDA-MB-435 cells after 24 hrs by MTT assay; format: functional

## CC(/C=C/C(=O)NO)=C\[C@@H](C)C(=O)c1ccc(N(C)C)cc1 [TRICHOSTATIN]
HL-60
  GI50: 0.59 µM
MDA-MB-435
  GI50: 1.78 µM
